Data published in paper PMC10316653 (iScience, 2023).
pIC50: −log10 of the molar value.

How the values were obtained:
A2BAR [1] = molecular target: T1, A2BAR (Homo sapiens, UniProt P29275); test: cAMP accumulation assay in naive HEK293 cells; format: cell-based; details: naive HEK293 cells, inhibitor 30 nM, PMA 1 μM, BAY 10 μM
T1 sequence (P29275 1-332): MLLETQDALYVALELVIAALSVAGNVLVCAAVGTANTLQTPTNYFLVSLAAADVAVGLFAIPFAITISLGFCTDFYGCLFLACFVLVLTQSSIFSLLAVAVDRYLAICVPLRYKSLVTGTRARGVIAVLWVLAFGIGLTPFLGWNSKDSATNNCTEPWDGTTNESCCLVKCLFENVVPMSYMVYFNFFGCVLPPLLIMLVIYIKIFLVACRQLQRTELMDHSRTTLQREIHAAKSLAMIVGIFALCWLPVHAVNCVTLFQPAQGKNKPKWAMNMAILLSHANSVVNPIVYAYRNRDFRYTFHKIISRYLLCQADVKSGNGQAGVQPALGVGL

A2BAR [2] = molecular target: T1, A2BAR; test: cAMP accumulation assay in HEK293-A2B cells; format: cell-based; details: HEK293-A2B cells
PKCβI = details: reported selectivity profile, ref not given; cited from earlier work
PKCβ2 = details: reported selectivity profile, ref not given; cited from earlier work
PKCγ = details: reported selectivity profile, ref not given; cited from earlier work
PKCβ = details: reported selectivity profile, ref not given; cited from earlier work

| effect on PKC-induced A2BAR activation (cAMP) (A2BAR [2]; inhibitor 30 nM) | effect on PKC-induced A2BAR activation (cAMP) (A2BAR [2]; inhibitor 1 μM) | Compound | effect on PKC (PMA)-induced enhancement of BAY-induced cAMP accumulation (A2BAR [1]) | pIC50 (PKCβI) | pIC50 (PKCβ2) | pIC50 (PKCγ) | pIC50 (PKCβ) |
| --- | --- | --- | --- | --- | --- | --- | --- |
| lack of inhibition | significant inhibition | CN(C)C[C@@H]1CCn2cc(c3ccccc32)C2=C(C(=O)NC2=O)c2cn(c3ccccc23)CCO1 [LY333531] | did not inhibit PMA-induced enhancement | […] | […] | […] | – |
| – | – | Cn1cc(C2=C(c3cn(C4CCN(Cc5ccccn5)CC4)c4ccccc34)C(=O)NC2=O)c2ccccc21 [enzastaurin] | did not inhibit PMA-induced enhancement | – | – | […] | […] |
